Source: the supplement of paper PMC11061612

Assays:
Experiment in all cases: combination Emax (second highest fraction inhibited in the dose matrix, 72 h); higher = more inhibition; extreme values may be limits of the assay
IGR-37 (Melanoma) = system: IGR-37 (Melanoma)
Summary of the method: (§1)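 Cell lines in DMEM/F12 or RPMI with 10% FBS were plated in 1536-well plates, held 24 hours at 37°C, 5% CO2, then given two-drug dose matrices for 72 hours (DMSO typically 0.2%). Viability was read by CellTiter-Glo 2.0 luminescence and scaled as inhibition from 0 (vehicle wells) to 1 (blank wells). Combination Emax is the second-highest inhibition in the matrix; Bliss excess is observed combination effect minus expected EA + EB − EA·EB, EA and EB being single-agent effects.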

[1] = system: CAL-29 (Bladder Carcinoma)
Summary of the method: as §1

[2] = system: A549 (Lung Adenocarcinoma)
Summary of the method: as §1

[3] = system: PANC-10-05 (Pancreatic Carcinoma)
Summary of the method: as §1

FU97 (Gastric Carcinoma) = system: FU97 (Gastric Carcinoma)
Summary of the method: as §1

[4] = system: SK-MES-1 (Squamous Cell Lung Carcinoma)
Summary of the method: as §1

[5] = system: OS-RC-2 (Kidney Carcinoma)
Summary of the method: as §1

[6] = system: NCI-H1666 (Lung Adenocarcinoma)
Summary of the method: as §1

U-2-OS (Osteosarcoma) = system: U-2-OS (Osteosarcoma)
Summary of the method: as §1

[7] = system: CCK-81 (Colorectal Carcinoma)
Summary of the method: as §1

[8] = system: HCC1954 (Breast Carcinoma)
Summary of the method: as §1

[9] = system: ECC10 (Gastric Carcinoma)
Summary of the method: as §1

[10] = system: ONS-76 (Other Solid Carcinomas)
Summary of the method: as §1

[11] = system: A3-KAW (B-Cell Non-Hodgkin's Lymphoma)
Summary of the method: as §1

[12] = system: SK-MG-1 (Low Grade Glioma)
Summary of the method: as §1

Hs-445 (Non-Cancerous) = system: Hs-445 (Non-Cancerous)
Summary of the method: as §1

[13] = system: VCaP (Prostate Carcinoma)
Summary of the method: as §1

[14] = system: MDST8 (Colorectal Carcinoma)
Summary of the method: as §1

[15] = system: TT (Thyroid Gland Carcinoma)
Summary of the method: as §1

NCI-H2591 (Mesothelioma) = system: NCI-H2591 (Mesothelioma)
Summary of the method: as §1

| Structure (SMILES) | combination Emax (IGR-37 (Melanoma)) | combination Emax [1] | combination Emax [2] | combination Emax [3] | combination Emax (FU97 (Gastric Carcinoma)) | combination Emax [4] | combination Emax [5] | combination Emax [6] | combination Emax (U-2-OS (Osteosarcoma)) | combination Emax [7] | combination Emax [8] | combination Emax [9] | combination Emax [10] | combination Emax [11] | combination Emax [12] | combination Emax (Hs-445 (Non-Cancerous)) | combination Emax [13] | combination Emax [14] | combination Emax [15] | combination Emax (NCI-H2591 (Mesothelioma)) |
| --- | --- | --- | --- | --- | --- | --- | --- | --- | --- | --- | --- | --- | --- | --- | --- | --- | --- | --- | --- | --- |
| Cn1cnc2c(F)c(Nc3ccc(Br)cc3Cl)c(C(=O)NOCCO)cc21 [Selumetinib] + C[C@@H]1COCCN1C2=NC(=NC(=C2)C3(CC3)[S@](=N)(=O)C)C4=C5C=CNC5=NC=C4 [AZD6738] (first compound max 10 µM, 7x7, partner max 10 µM) | 0.864 | 0.696 | 0.875 | 0.613 | 0.333 | 0.687 | 0.304 | 0.516 | 0.624 | 0.923 | 0.432 | 0.443 | 0.771 | 1 | 0.387 | 0.755 | 0.303 | 0.784 | 0.316 | 0.339 |
| C[C@@H](c1ccc2nccn2c1)n1nnc2ncc(-c3cnn(C)c3)nc21 [Savolitinib] + CC1(C)CCC(CN2CCN(c3ccc(C(=O)NS(=O)(=O)c4ccc(NCC5CCOCC5)c([N+](=O)[O-])c4)c(Oc4cnc5[nH]ccc5c4)c3)CC2)=C(c2ccc(Cl)cc2)C1 [Venetoclax] (first compound max 1 µM, 7x7, partner max 1 µM) | 0.3 | 0.0725 | 0.142 | 0.117 | 0.13 | 0.0772 | 0.145 | 0.152 | 0.125 | 0.1 | 0.136 | 0.5 | 0.118 | 0.188 | 0.11 | 0.292 | 0.115 | 0.176 | 0.173 | 0.15 |
| CCc1c2c(nc3ccc(O)cc13)-c1cc3c(c(=O)n1C2)COC(=O)[C@]3(O)CC [SN-38] + CN(C)CCCOc1ccc(-c2ccc3ncc4c(c3c2)n(C2CCOCC2)c(=O)n4C)cn1 [AZD0156] (first compound max 0.3 µM, 7x7, partner max 1 µM) | 0.826 | 0.928 | 0.755 | 0.73 | 0.187 | 0.804 | 0.443 | 0.626 | 0.0889 | 0.673 | 0.376 | 0.945 | 0.805 | 1 | 0.833 | 0.993 | 0.391 | 0.802 | 0.827 | 0.65 |
| CC1(C)CCC(CN2CCN(c3ccc(C(=O)NS(=O)(=O)c4ccc(NCC5CCOCC5)c([N+](=O)[O-])c4)c(Oc4cnc5[nH]ccc5c4)c3)CC2)=C(c2ccc(Cl)cc2)C1 [Venetoclax] + CN(C)CCCOc1ccc(-c2ccc3ncc4c(c3c2)n(C2CCOCC2)c(=O)n4C)cn1 [AZD0156] (first compound max 1 µM, 7x7, partner max 1 µM) | 0.503 | 0.25 | 0.28 | 0.229 | 0.462 | 0.216 | 0.249 | 0.225 | 0.188 | 0.244 | 0.162 | 0.963 | 0.725 | 0.288 | 0.275 | 0.221 | 0.196 | 0.199 | 0.594 | 0.161 |
| Cc1cc2ncnn2cc1Nc1ncc2c(n1)n(C1CCOCC1)c(=O)n2C [AZD7648] + C[C@@H]1COCCN1C2=NC(=NC(=C2)C3(CC3)[S@](=N)(=O)C)C4=C5C=CNC5=NC=C4 [AZD6738] (first compound max 10 µM, 7x7, partner max 10 µM) | 0.761 | 0.598 | 0.786 | 0.49 | 0.42 | 0.72 | 0.419 | 0.354 | 0.675 | 0.9 | 0.568 | 0.421 | 0.825 | 0.969 | 0.584 | 0.853 | 0.452 | 0.775 | 0.604 | 0.39 |
| CC(=O)c1c(C)c2cnc(Nc3ccc(N4CCNCC4)cn3)nc2n(C2CCCC2)c1=O [Palbociclib] + Cn1cnc2c(F)c(Nc3ccc(Br)cc3Cl)c(C(=O)NOCCO)cc21 [Selumetinib] (first compound max 10 µM, 7x7, partner max 10 µM) | 0.872 | 0.301 | 0.764 | 0.521 | 0.377 | 0.645 | 0.235 | 0.49 | 0.601 | 0.477 | 0.178 | 0.539 | 0.734 | 0.869 | 0.344 | 0.262 | 0.159 | 0.671 | 0.349 | 0.288 |
| CS(=O)(=O)CCNCc1ccc(-c2ccc3ncnc(Nc4ccc(OCc5cccc(F)c5)c(Cl)c4)c3c2)o1 [Lapatinib] + C[C@@H](Oc1cc(-c2cnn(C3CCNCC3)c2)cnc1N)c1c(Cl)ccc(F)c1Cl [Crizotinib] (first compound max 10 µM, 7x7, partner max 10 µM) | 0.906 | 0.952 | 0.988 | 0.675 | 0.81 | 0.966 | 0.584 | 0.833 | 0.486 | 0.975 | 0.91 | 0.97 | 0.73 | 0.968 | 0.9 | 0.783 | 0.465 | 0.738 | 0.409 | 0.572 |
